Results on 17 compounds are retold here after paper PMC7037052, “Predicting the Blood-Brain Barrier Permeability of New Drug-Like Compounds via HPLC with Various Stationary Phases” (Molecules, 2020).

On the set-up of series [1]: method as in PMID 16331406. To be noted: rats; BB = Cbrain/Cplasma; training set; cited from earlier work.
The nature of series [2]: RP-HPLC retention on Purosphere RP-18e (ODS) column, buffer pH 7.4-acetonitrile. The series is classed as physicochemical. To be noted: for log kw, ODS: extrapolated to buffer pH 7.4 as mobile phase, 25 °C; for s ODS: slope of Soczewiński-Wachtmeister equation, acetonitrile φ 0.3–0.6. An outline of the steps: (§1)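 Mobile phase: pH 7.4 Na2HPO4/citric acid buffer (0.01 mol L^−1) with acetonitrile at several volume fractions per column; 25 °C, UV detection at 210 and 254 nm, citric acid as dead-time marker. log kw extrapolated to pure buffer by Soczewiński-Wachtmeister equation; mean of ≥3 independent measurements.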

Series [3] in a line: RP-HPLC retention on IAM.PC.DD2 (immobilized artificial membrane) column, buffer pH 7.4-acetonitrile. The series is classed as physicochemical. The following applies: for log kw, IAM: extrapolated to buffer pH 7.4 as mobile phase, 25 °C; for s IAM: slope of Soczewiński-Wachtmeister equation, acetonitrile φ 0.2–0.5. An outline of the steps: as §1
A short description of series [4]: RP-HPLC retention on Cosmosil Cholester column, buffer pH 7.4-acetonitrile. The series is classed as physicochemical. To be noted: for log kw, Cholester: extrapolated to buffer pH 7.4 as mobile phase, 25 °C; for s Cholester: slope of Soczewiński-Wachtmeister equation, acetonitrile φ 0.4–0.6. Summed up:
as §1

Details of series [5]: method as in PMID 24157086, PMID 25528370. To be noted: cited from earlier work.
For series [6], the system named is Herpes simplex virus type 1. Set-up: method as in PMID 30807815. The following applies: cited from earlier work.
In another series the test system is normal Vero cells. Set-up: method as in PMID 30807815. To be noted: cited from earlier work.
The test system of the next series is erythrocytes. On the set-up: method as in PMID 30807815. The following applies: cited from earlier work.
The next series relates to human cancer cells. Set-up: method as in doi:10.1016/j.arabjc.2016.12.024, PMID 24126095. To be noted: cited from earlier work.
A further series has as its system normal cells. Set-up: method as in doi:10.1016/j.arabjc.2016.12.024, PMID 24126095. The following applies: cited from earlier work.

On to `CN1CCC[C@H]1c1cccnc1` [Compound 54-11-5], for which, in [1], the “log BBexp.” value is recorded as 0.56.
As to `Cc1ncc2n1-c1ccc(Cl)cc1C(c1ccccc1F)=NC2` [Compound 59467-70-8], the “log BBexp.” value in series [1] is listed as 0.32.
Regarding `COC(=O)Cc1nnc2n(c1=O)CCN2c1ccc(C)cc1` [Compound 8], in series [2], the “log kw, ODS” value is 1.90 and the “s ODS” value is on record as 3.82. In addition, in series [3], the “log kw, IAM” value was 1.33 and the “s IAM” value is on record as 3.33. In series [4], the “log kw, Cholester” value is 1.29 and the “s Cholester” value worked out at 2.75. Moreover, the “antinociceptive effect in mice” value in series [5] is on record as “strongest antinociceptive effect”.
As to `COc1ccc2nc([S+]([O-])Cc3ncc(C)c(OC)c3C)[nH]c2c1` (stereo not shown) [Compound 73590-58-6], the “log BBexp.” value in series [1] is −0.82.
In the case of `CC(C)(C)OC(=O)c1ncn2c1[C@@H]1CCCN1C(=O)c1c(Br)cccc1-2` [Compound 84379-13-5], in series [1], the “log BBexp.” value is −0.09.
With `CCOc1ccc(N2CCn3c2nnc(Cc2ccccc2)c3=O)cc1` [Compound 51], in [2], the “log kw, ODS” value is on record as 3.28 and the “s ODS” value is 5.61. In series [3], the “log kw, IAM” value was 2.11 and the “s IAM” value was determined as 4.51. Further, in series [4], the “log kw, Cholester” value is listed as 2.68 and the “s Cholester” value was 4.55. Also, in series [5], the “antinociceptive effect in mice” value is “strongest antinociceptive effect”.
Take `Brc1cc(Br)c(NC2=NCCN2)c(Br)c1` [Compound 38941-33-2]: the “log BBexp.” value in [1] is listed as 0.58.
In the case of `Brc1cccc(Br)c1NC1=NCCN1` [Compound 4205-93-0], the “log BBexp.” value in series [1] is on record as 0.33.
As for `Clc1cccc(Cl)c1NC1=NCCN1` [Compound 4205-90-7], the “log BBexp.” value in series [1] is listed as 0.19.
As to `Clc1ccc(NC2=NCCN2)c(Cl)c1` [Compound 23830-88-8], the “log BBexp.” value in [1] is recorded as 0.16.
For the compound `CN1Cc2c(C(=O)OC(C)(C)C)ncn2-c2ccsc2C1=O` [Compound 99632-94-7], in series [1], the “log BBexp.” value is −0.25.
Regarding `CN1C(=O)CC[C@H]1c1cccnc1` [Compound 486-56-6], the “log BBexp.” value in series [1] was 0.04.
On to `NC(N)=Nc1nc(-c2ccccc2)cs1` [Compound 2507-81-5], for which the “log BBexp.” value in [1] is given as −0.18.
Turning to `CCc1nnc2n(c1=O)CCN2c1ccc(Cl)c(Cl)c1` [Compound 6], in [2], the “log kw, ODS” value was 2.53 and the “s ODS” value is on record as 4.49. Further, in [3], the “log kw, IAM” value is 1.85 and the “s IAM” value worked out at 4.11. Further, in series [4], the “log kw, Cholester” value is listed as 2.05 and the “s Cholester” value is recorded as 3.61. In addition, the “potency against Herpes simplex virus type 1” value in series [6] is listed as “remarkable concentration-dependent potency”. Further, the “toxicity to normal Vero cells” value in the series with normal Vero cells is recorded as “low toxicity”. Also, the “oxidatively-induced haemolysis of erythrocytes” value in the series with erythrocytes was “inhibiting the oxidatively-induced haemolysis”. Besides, the “antiproliferative activities in human cancer cells” value in the series on human cancer cells is reported as “significant antiproliferative activities”. In addition, the “toxic effects for normal cells” value with normal cells is recorded as “less toxic effects”.
Turning to `O=c1c(Cc2ccccc2Cl)nnc2n1CCN2c1ccccc1` [Compound 42], in series [2], the “log kw, ODS” value is given as 3.28 and the “s ODS” value is listed as 5.10. Moreover, in [3], the “log kw, IAM” value is on record as 2.34 and the “s IAM” value is recorded as 4.78. In series [4], the “log kw, Cholester” value is given as 2.83 and the “s Cholester” value came out at 4.71. The “antinociceptive effect in mice” value in [5] is “strongest antinociceptive effect”.
For `c1cncc([C@@H]2CCCN2)c1` [Compound 494-97-3], the “log BBexp.” value in series [1] is listed as 0.32.
Turning to `Cc1ccccc1N1CCn2c1nnc(-c1ccco1)c2=O` [Compound 19], in series [2], the “log kw, ODS” value is 1.74 and the “s ODS” value came to 3.48. Further, in series [3], the “log kw, IAM” value is recorded as 0.96 and the “s IAM” value amounted to 2.72. In [4], the “log kw, Cholester” value is listed as 1.20 and the “s Cholester” value was 2.78. Also, the “antiproliferative activities in human cancer cells” value in the series with human cancer cells was “significant antiproliferative activities”. In the series on normal cells, the “toxic effects for normal cells” value was “less toxic effects”.
